Reference: the METLIN SMRT retention time set (Domingo-Almenara et al. 2019)

Assay: gradient 5% acetonitrile 3 min, to 50% in 2 min, to 85% in 15 min, held 3 min, 100 µL/min
Settings: column: Zorbax Extend-C18 2.1 x 50 mm; eluents: water / acetonitrile, 0.1% formic acid
Outline: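 Retention times come from adduct peaks that were picked computationally and then checked by hand. The standards, pure and pooled in mixtures of ~100 molecules, were run on a Zorbax Extend-C18 column (2.1 × 50 mm, 1.8 μm) at 100 μL/min with water and acetonitrile, each with 0.1% formic acid. Detection was by quadrupole time-of-flight mass spectrometry in positive and negative ionization mode, with a dead volume of 40 μL and a dwell volume of 900 μL.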

Cc1csc(-c2cc(S(=O)(=O)Nc3ccc(S(N)(=O)=O)cc3)c(C)n2C)n1
RP-LC retention time: 749 s

COc1cccc(CNC(=O)C2CCCN(S(=O)(=O)c3cc(-c4noc(C)n4)cs3)C2)c1 (stereo unspecified)
RP-LC retention time: 874 s

CCCCN1CCN(S(=O)(=O)c2ccccc2-c2nc(-c3ccc(F)cc3)no2)CC1
RP-LC retention time: 752 s

CC(C)(C)n1nnnc1C1CC2(CCOCC2)C(=O)N1CCc1nc2ccccc2[nH]1 (stereo unspecified)
RP-LC retention time: 604 s

Cc1cccc2nc(-c3cccc(Br)c3)c(Nc3ccc4c(c3)OCCO4)n12
RP-LC retention time: 739 s

Cn1ccc(C(=O)N2CCNC(=O)C2(C)C)n1
RP-LC retention time: 527 s

CCc1nc2c(c(=O)n1CC(=O)Nc1ccccc1)CN(Cc1ccccc1)CC2
RP-LC retention time: 638 s

COc1ccc(-c2nc(-c3nnn(Cc4ccccc4)c3C)no2)c(OC)c1
RP-LC retention time: 990 s

O=C(Cc1ccc2c(c1)OCO2)Nc1ccc2scnc2c1
RP-LC retention time: 702 s

Cc1ccc(N2CCN(Cc3c(C)noc3C)CC2)cc1
RP-LC retention time: 621 s

COc1ccc(OC)c(CNC(=O)Cc2nnc(-c3cnccn3)o2)c1
RP-LC retention time: 616 s

COc1ccccc1N1CCN(CC(O)c2ccc3c(c2)OCO3)CC1 (stereo unspecified)
RP-LC retention time: 631 s

Cc1ccc(S(=O)(=O)N2CCCCC2CCNC(=O)c2cccn(C)c2=O)cc1 (stereo unspecified)
RP-LC retention time: 760 s

NC(=O)C1CCN(C(=O)Cc2cc(-c3ccc(F)cc3)on2)CC1
RP-LC retention time: 630 s

O=C(c1cccc(Cl)c1)N1CCC2(C1)NC(=O)N(Cc1ccc(F)cc1)C2=O (stereo unspecified)
RP-LC retention time: 820 s

Cc1cc(C)c(NC(=O)Cn2nc3c(Oc4ccccc4C)nccn3c2=O)c(C)c1
RP-LC retention time: 894 s

COc1cc(C)c(C)cc1S(=O)(=O)NCC1CCN(C(=O)Oc2ccccc2)CC1
RP-LC retention time: 964 s

Cc1nc(-c2ccc(NC(=O)N3CCN(c4ccc(F)cc4)CC3)cc2)no1
RP-LC retention time: 859 s

O=C(CN1C(=O)CCc2cc(Br)ccc21)NCCc1ccccc1
RP-LC retention time: 870 s

CCc1nc(-c2csc(S(=O)(=O)N3CCC(C(=O)Nc4ccc(F)c(Cl)c4)CC3)c2)no1
RP-LC retention time: 1150 s

O=C(Nc1cccn2c(C3CCC3)nnc12)c1cnccn1
RP-LC retention time: 692 s

O=c1ccn(-c2ccc(F)c(F)c2)nc1-c1nc(-c2cccc(F)c2)no1
RP-LC retention time: 923 s

Cc1ccnn1-c1ccc(SCC(=O)Nc2ccc(F)cc2F)nn1
RP-LC retention time: 893 s

Cn1ncc2c3ccccc3n(CC(=O)NCCCN3CCC(N4CCCCC4)CC3)c2c1=O
RP-LC retention time: 527 s

CC1(C)CC(=O)c2cn(-c3ccccc3)c(=O)c(C(=O)N3CCN(c4ccccn4)CC3)c2C1
RP-LC retention time: 622 s

Cc1ccc(CN2CCN(C3CCN(C(=O)c4ccc(Br)o4)CC3)C(=O)C2=O)cc1
RP-LC retention time: 718 s

CC1=NS(=O)(=O)N(C)C=C1C(=O)OCc1cc(C)ccc1C
RP-LC retention time: 957 s

Cc1noc(C)c1CN1CCCCC1c1nc(-c2ccncc2)no1 (stereo unspecified)
RP-LC retention time: 649 s

O=C(NCc1ccc(F)cc1)C1CCN(c2cncnc2N2CCCC2)CC1
RP-LC retention time: 659 s

COc1ccc(-c2nnc(-c3ccccc3)o2)cc1S(=O)(=O)NC1CCCC1
RP-LC retention time: 966 s

Cc1cc(N2CCN(C(=O)c3ccc4c(c3)OCO4)CC2)nc(N2CCCCC2)n1
RP-LC retention time: 666 s

Cc1ccc(CN2CCN(CC(=O)N3CCN(c4cccc(Cl)c4)CC3)C(=O)C2=O)cc1
RP-LC retention time: 866 s

Cc1nc(-c2cn(-c3cccc(Cl)c3)nn2)no1
RP-LC retention time: 858 s

COc1ccc(CNC(=O)C2CCN(C(=O)c3nn(C)c4c3CN(C(=O)C(C)C)CC4)CC2)cc1
RP-LC retention time: 662 s

Cc1cc(=O)n(CC(=O)NCc2ccc(F)cc2F)c(N)n1
RP-LC retention time: 596 s

CCCCN(C)C(=O)Cn1c(=O)c(S(=O)(=O)c2ccccc2)cc2cc(C)ccc21
RP-LC retention time: 953 s

O=C1NCCCCCCN[C@H]2C[C@H](C(=O)N3CCc4ccccc4C3)C[C@@H]12
RP-LC retention time: 612 s

CCc1ccc(NC(=O)Cn2nc(N3CCC(C)CC3)c3ccccc3c2=O)cc1
RP-LC retention time: 1100 s

COc1cccc2c1C(=O)c1c(O)c3c(c(O)c1C2=O)C[C@@](O)(/C(C)=N\O)C[C@@H]3OC1CC(N)C(O)C(C)O1 (stereo partly specified)
RP-LC retention time: 681 s

O=C(N[C@H](Cc1ccccc1)C(=O)NCc1cscn1)c1cccc(Cl)c1
RP-LC retention time: 806 s

CCc1nc(-c2csc(S(=O)(=O)N3CCCC(C(=O)Nc4ccc(C)cn4)C3)c2)no1 (stereo unspecified)
RP-LC retention time: 831 s

CCOC(=O)c1c(C)[nH]c(CCC(=O)NCc2ccc(C)o2)c1C
RP-LC retention time: 816 s

O=C1NC(C(=O)Nc2ccc(F)c(F)c2)Cn2cccc21 (stereo unspecified)
RP-LC retention time: 693 s

O=C(NCC(F)(F)F)C1CCN(C(=O)NCc2ccccc2)CC1
RP-LC retention time: 656 s

Cc1noc(C)c1S(=O)(=O)N1CCCC(c2nnnn2-c2ccccc2)C1 (stereo unspecified)
RP-LC retention time: 903 s

CC1=C(c2ccc(Cl)cc2)S(=O)(=O)N=C1N1CCCN(C(=O)Cn2ccnc2)CC1
RP-LC retention time: 633 s

CCOC(=O)c1nnn(-c2ccccc2OC)c1C(=O)OCC
RP-LC retention time: 917 s

Cc1c(Cl)cccc1S(=O)(=O)N1CCc2nc(-c3ccc(F)cc3)ncc2C1
RP-LC retention time: 1250 s

COc1ccc(NS(=O)(=O)c2ccc(-c3nnc(C4CCC4)o3)o2)cc1
RP-LC retention time: 864 s

CC(C)Cc1csc(-c2csc(S(=O)(=O)Nc3cccc(Cl)c3)c2)n1
RP-LC retention time: 1230 s

Cc1ccc(CNC(=O)C2(C)CCCN(S(=O)(=O)c3ccccc3)C2)cc1 (stereo unspecified)
RP-LC retention time: 960 s

COc1cc(-c2cccc(Cl)c2)nc2ccc(NC(=O)Cc3cccs3)cc12
RP-LC retention time: 843 s

COc1ccc(NC(=O)Cn2c(=O)n(-c3ccc(F)cc3)c3ncccc32)cc1OC
RP-LC retention time: 753 s

O=C(C1CCOC1)N1CCC(N(Cc2ccccc2)C2CCOCC2)CC1 (stereo unspecified)
RP-LC retention time: 572 s

CC(C)Cn1cc(CCNC(=O)c2cc3ccccc3[nH]2)c2cccnc21
RP-LC retention time: 850 s

CCc1cc2c(N3CCCC(C(=O)NCCCN4CCN(CC)CC4)C3)ncnc2s1 (stereo unspecified)
RP-LC retention time: 579 s

CCCN1C(=O)COc2ccc(-c3noc(C4CC(=O)N(c5ccccc5)C4)n3)cc21 (stereo unspecified)
RP-LC retention time: 948 s

CC1=C(c2ccc(Cl)cc2)S(=O)(=O)N=C1N1CCC(NC(=O)C2CCCO2)CC1 (stereo unspecified)
RP-LC retention time: 779 s

Cc1cc(C(=O)N2CCCn3nc(-c4ccc(F)cc4)cc3C2)nn1C
RP-LC retention time: 629 s

O=C(NC1CC1)C1CCN(C(=O)c2cc(-c3ccncc3)n[nH]2)CC1
RP-LC retention time: 546 s

Cc1ccc(S(=O)(=O)CCc2noc(C(=O)NCCCN3CCCC(C)C3)n2)cc1 (stereo unspecified)
RP-LC retention time: 632 s

CC(C)(C)c1ccc(O)c(CN(Cc2cc(C(C)(C)C)ccc2O)C2CCCCC2)c1
RP-LC retention time: 1020 s

Cc1nn2c(S(=O)(=O)N3CCSCC3)c(C(C)C)nc2s1
RP-LC retention time: 862 s

O=C1CCCN1Cc1nc(-c2ccc(F)c(Cl)c2)no1
RP-LC retention time: 853 s

O=C(CCc1c(-c2ccc(Cl)cc2)nc2ccccn12)NCc1ccc2c(c1)OCO2
RP-LC retention time: 654 s

O=C([C@@H]1C[C@H](F)CN1C(=O)C1(c2ccccc2)CC1)N1CCOCC1
RP-LC retention time: 639 s
